Columns and labels:
[1] = Ratio of hypoglycemic activity in mice was tested on day 7.; assay type: functional
Mus musculus [2] = assay: In vivo hypoglycemic activity after administration (40 mg/kg) in mice on day 0 was determined; assay type: functional
Mus musculus [3] = assay: In vivo hypoglycemic activity after administration (40 mg/kg) in mice on day 7 was determined; assay type: functional
Mus musculus [4] = assay: In vivo hypoglycemic activity after administration (45 mg/kg) in mice on day 7 was determined; assay type: functional
Mus musculus [5] = assay: In vivo hypoglycemic activity after administration (45 mg/kg) in mice on day 0 was determined; assay type: functional
Mus musculus [6] = assay: In vivo hypoglycemic activity after administration (50 mg/kg) in mice on day 0 was determined; assay type: functional
Mus musculus [7] = assay: In vivo hypoglycemic activity after administration (50 mg/kg) in mice on day 7 was determined; assay type: functional
Mus musculus [8] = assay: Body weight was determined in mouse after oral administration of 500 mg/kg on day 7; assay type: functional
Rattus norvegicus [9] = assay: Liver weight was determined in rat after oral administration of 500 mg/kg; assay type: functional; design: unit not given beside the values
Mus musculus [10] = assay: Body weight was determined in mouse after oral administration of 100 mg/kg on day 7; assay type: functional
Mus musculus [11] = assay: Abnormal symptoms was determined in mouse after oral administration of 20 mg/kg; - sign indicates abnormal symptoms in treated mouse; assay type: functional, organism-based; design: dose 20 mg/kg
Mus musculus [12] = assay: Daily food consumption was determined in mouse after oral administration of 100 mg/kg; assay type: functional
Mus musculus [13] = assay: Daily water consumption was determined in mouse after oral administration of 20 mg/kg; assay type: functional
Mus musculus [14] = assay: Daily food consumption was determined in mouse after oral administration of 5 mg/kg; assay type: functional
Rattus norvegicus [15] = assay: Body weight was determined in rat after oral administration of 500 mg/kg on day 7; assay type: functional
Mus musculus [16] = assay: Abnormal symptoms was determined in mouse after oral administration of 500 mg/kg; - sign indicates abnormal symptoms in treated mouse; assay type: functional, organism-based; design: dose 500 mg/kg
Rattus norvegicus [17] = assay: Body weight was determined in rat after oral administration of 500 mg/kg on day 0; assay type: functional
Rattus norvegicus [18] = assay: Kidney weight was determined in rat after oral administration of 500 mg/kg; assay type: functional
Mus musculus [19] = assay: Abnormal symptoms was determined in mouse after oral administration of 100 mg/kg; - sign indicates abnormal symptoms in treated mouse; assay type: functional, organism-based; design: dose 100 mg/kg
Mus musculus [20] = assay: Abnormal symptoms was determined in mouse after oral administration of 5 mg/kg; - sign indicates abnormal symptoms in treated mouse; assay type: functional, organism-based; design: dose 5 mg/kg
Rattus norvegicus [21] = assay: Lung weight was determined in rat after oral administration of 500 mg/kg; assay type: functional; design: unit not given beside the values
Mus musculus [22] = assay: Body weight was determined in mouse after oral administration of 500 mg/kg on day 0; assay type: functional
Rattus norvegicus [23] = assay: Daily water consumption was determined in rat after oral administration of 500 mg/kg; assay type: functional
Mus musculus [24] = assay: Body weight was determined in mouse after oral administration of 20 mg/kg on day 7; assay type: functional
Rattus norvegicus [25] = assay: Spleen weight was determined in rat after oral administration of 500 mg/kg; assay type: functional; design: unit not given beside the values
Mus musculus [26] = assay: Daily food consumption was determined in mouse after oral administration of 20 mg/kg; assay type: functional
Mus musculus [27] = assay: Body weight was determined in mouse after oral administration of 20 mg/kg on day 0; assay type: functional
Mus musculus [28] = assay: Daily water consumption was determined in mouse after oral administration of 5 mg/kg; assay type: functional
Mus musculus [29] = assay: Daily water consumption was determined in mouse after oral administration of 100 mg/kg; assay type: functional
Mus musculus [30] = assay: Body weight was determined in mouse after oral administration of 100 mg/kg on day 0; assay type: functional
Mus musculus [31] = assay: Body weight was determined in mouse after oral administration of 5 mg/kg on day 7; assay type: functional
Mus musculus [32] = assay: Body weight was determined in mouse after oral administration of 5 mg/kg on day 0; assay type: functional
Rattus norvegicus [33] = assay: Daily food consumption was determined in rat after oral administration of 500 mg/kg; assay type: functional
Mus musculus [34] = assay: Daily food consumption was determined in mouse after oral administration of 500 mg/kg; assay type: functional
Mus musculus [35] = assay: Daily water consumption was determined in mouse after oral administration of 500 mg/kg; assay type: functional
Rattus norvegicus [36] = assay: Abnormal symptoms was determined in rat after oral administration of 500 mg/kg; - sign indicates abnormal symptoms in treated mouse; assay type: functional, organism-based; design: dose 500 mg/kg

Structure (SMILES): COc1ccc(/C=C/C(=O)Oc2cc(O)c3c(=O)cc(-c4ccccc4)oc3c2)cc1
- Ratio [1]: 70
- Blood glucose (Mus musculus [2]): 475.9 mg/dL
- Blood glucose (Mus musculus [3]): 333.3 mg/dL

Structure (SMILES): CCOc1cc(OCC)c2c(=O)cc(-c3ccccc3)oc2c1
- Blood glucose (Mus musculus [4]): 400.5 mg/dL
- Ratio [1]: 91.7
- Blood glucose (Mus musculus [5]): 436.6 mg/dL

Structure (SMILES): O=c1cc(-c2ccccc2)oc2cc(O)cc(O)c12 [CHRYSIN]
- Blood glucose (Mus musculus [4]): 503.5 mg/dL
- Ratio [1]: 104.4
- Blood glucose (Mus musculus [5]): 482.4 mg/dL

Structure (SMILES): O=C(/C=C/c1ccccc1)Oc1cc(O)c2c(=O)cc(-c3ccccc3)oc2c1
- Ratio [1]: 92.6
- Blood glucose (Mus musculus [6]): 440.6 mg/dL
- Blood glucose (Mus musculus [7]): 407.9 mg/dL

Structure (SMILES): COc1cc(OC)c2c(=O)cc(-c3ccccc3)oc2c1 [CHRYSIN DIMETHYL ETHER]
- Ratio [1]: 89.9
- Blood glucose (Mus musculus [2]): 444.4 mg/dL
- Blood glucose (Mus musculus [3]): 399.5 mg/dL

Structure (SMILES): COc1cc(O)c2c(=O)cc(-c3ccccc3)oc2c1 [TECHTOCHRYSIN]
- Ratio [1]: 87.8
- Blood glucose (Mus musculus [6]): 455 mg/dL
- Blood glucose (Mus musculus [7]): 399.6 mg/dL

Structure (SMILES): CCCCCCCCCCCCOc1cc(O)c2c(=O)cc(-c3ccccc3)oc2c1
- Ratio [1]: 81.9
- Blood glucose (Mus musculus [6]): 465.6 mg/dL
- Blood glucose (Mus musculus [7]): 381.3 mg/dL

Structure (SMILES): CCCOc1cc(O)c2c(=O)cc(-c3ccccc3)oc2c1
- Ratio [1]: 59.5
- Blood glucose (Mus musculus [6]): 400 mg/dL
- Blood glucose (Mus musculus [7]): 237.8 mg/dL

Structure (SMILES): CC(=O)Oc1ccccc1C(=O)Oc1cc(O)c2c(=O)cc(-c3ccccc3)oc2c1
- Ratio [1]: 102.4
- Blood glucose (Mus musculus [2]): 489.3 mg/dL
- Blood glucose (Mus musculus [3]): 500.9 mg/dL

Structure (SMILES): CCCCOc1cc(O)c2c(=O)cc(-c3ccccc3)oc2c1
- Body weight (Mus musculus [8]): 31.3
- Organ weight (Rattus norvegicus [9]): 10.74
- Body weight (Mus musculus [10]): 31
- Ratio [1]: 46.3
- Activity (Mus musculus [11]): abnormal symptoms in treated mouse
- Food intake (Mus musculus [12]): 50.53
- Water consumption (Mus musculus [13]): 79.33 mL
- Food intake (Mus musculus [14]): 51.91
- Body weight (Rattus norvegicus [15]): 293.3
- Activity (Mus musculus [16]): abnormal symptoms in treated mouse
- Body weight (Rattus norvegicus [17]): 235
- Organ weight (Rattus norvegicus [18]): 1.04
- Activity (Mus musculus [19]): abnormal symptoms in treated mouse
- Activity (Mus musculus [20]): abnormal symptoms in treated mouse
- Organ weight (Rattus norvegicus [21]): 1.22
- Body weight (Mus musculus [22]): 24.3
- Water consumption (Rattus norvegicus [23]): 197.16 mL
- Body weight (Mus musculus [24]): 30.6
- Organ weight (Rattus norvegicus [25]): 0.71
- Food intake (Mus musculus [26]): 52.81
- Body weight (Mus musculus [27]): 23.8
- Water consumption (Mus musculus [28]): 82.5 mL
- Blood glucose (Mus musculus [6]): 545.6 mg/dL
- Water consumption (Mus musculus [29]): 80.92 mL
- Body weight (Mus musculus [30]): 23.5
- Blood glucose (Mus musculus [7]): 252.4 mg/dL
- Body weight (Mus musculus [31]): 32.7
- Body weight (Mus musculus [32]): 24.9
- Food intake (Rattus norvegicus [33]): 113.58
- Food intake (Mus musculus [34]): 50.4
- Water consumption (Mus musculus [35]): 82.83 mL
- Activity (Rattus norvegicus [36]): abnormal symptoms in treated mouse

Structure (SMILES): CCCCCCCCOc1cc(O)c2c(=O)cc(-c3ccccc3)oc2c1
- Body weight (Mus musculus [8]): 30.1
- Organ weight (Rattus norvegicus [9]): 9.96
- Body weight (Mus musculus [10]): 31.6
- Ratio [1]: 51.4
- Activity (Mus musculus [11]): abnormal symptoms in treated mouse
- Food intake (Mus musculus [12]): 51.41 g
- Water consumption (Mus musculus [13]): 81.67 mL
- Food intake (Mus musculus [14]): 51.28 g
- Body weight (Rattus norvegicus [15]): 290.8
- Activity (Mus musculus [16]): abnormal symptoms in treated mouse
- Body weight (Rattus norvegicus [17]): 230.8
- Activity (Mus musculus [19]): abnormal symptoms in treated mouse
- Activity (Mus musculus [20]): abnormal symptoms in treated mouse
- Organ weight (Rattus norvegicus [21]): 1.26
- Body weight (Mus musculus [22]): 24
- Water consumption (Rattus norvegicus [23]): 205.91 mL
- Body weight (Mus musculus [24]): 32.1
- Organ weight (Rattus norvegicus [25]): 0.69
- Food intake (Mus musculus [26]): 52.57 g
- Body weight (Mus musculus [27]): 25.5
- Water consumption (Mus musculus [28]): 79.83 mL
- Blood glucose (Mus musculus [6]): 411.2 mg/dL
- Water consumption (Mus musculus [29]): 82.83 mL
- Body weight (Mus musculus [30]): 24.8
- Blood glucose (Mus musculus [7]): 211.4 mg/dL
- Body weight (Mus musculus [31]): 30.8
- Body weight (Mus musculus [32]): 23.8
- Food intake (Rattus norvegicus [33]): 113.08 g
- Food intake (Mus musculus [34]): 50.6 g
- Water consumption (Mus musculus [35]): 80.75 mL
- Activity (Rattus norvegicus [36]): abnormal symptoms in treated mouse

Structure (SMILES): O=C(Cc1ccccc1)Oc1cc(O)c2c(=O)cc(-c3ccccc3)oc2c1
- Ratio [1]: 103.9
- Blood glucose (Mus musculus [6]): 496.2 mg/dL
- Blood glucose (Mus musculus [7]): 515.6 mg/dL

Structure (SMILES): O=C(Oc1cc(O)c2c(=O)cc(-c3ccccc3)oc2c1)c1ccc(F)cc1
- Ratio [1]: 79.3
- Blood glucose (Mus musculus [2]): 458.2 mg/dL
- Blood glucose (Mus musculus [3]): 362.5 mg/dL

Structure (SMILES): Cc1ccc(C(=O)Oc2cc(O)c3c(=O)cc(-c4ccccc4)oc3c2)cc1
- Body weight (Mus musculus [8]): 31.2
- Organ weight (Rattus norvegicus [9]): 9.6
- Body weight (Mus musculus [10]): 31.6
- Ratio [1]: 56.4
- Blood glucose (Mus musculus [2]): 464.3 mg/dL
- Activity (Mus musculus [11]): abnormal symptoms in treated mouse
- Food intake (Mus musculus [12]): 50.78 g
- Water consumption (Mus musculus [13]): 80.75 mL
- Food intake (Mus musculus [14]): 49.35 g
- Body weight (Rattus norvegicus [15]): 302.5
- Activity (Mus musculus [16]): abnormal symptoms in treated mouse
- Body weight (Rattus norvegicus [17]): 237.5
- Organ weight (Rattus norvegicus [18]): 0.98
- Activity (Mus musculus [19]): abnormal symptoms in treated mouse
- Activity (Mus musculus [20]): abnormal symptoms in treated mouse
- Organ weight (Rattus norvegicus [21]): 1.26
- Body weight (Mus musculus [22]): 24.8
- Water consumption (Rattus norvegicus [23]): 216.83 mL
- Body weight (Mus musculus [24]): 31.4
- Organ weight (Rattus norvegicus [25]): 0.66
- Food intake (Mus musculus [26]): 50.6 g
- Blood glucose (Mus musculus [3]): 261.8 mg/dL
- Body weight (Mus musculus [27]): 24.7
- Water consumption (Mus musculus [28]): 80.42 mL
- Water consumption (Mus musculus [29]): 83.75 mL
- Body weight (Mus musculus [30]): 25.2
- Body weight (Mus musculus [31]): 32.2
- Body weight (Mus musculus [32]): 25.1
- Food intake (Rattus norvegicus [33]): 112.83 g
- Food intake (Mus musculus [34]): 49.86 g
- Water consumption (Mus musculus [35]): 82.08 mL
- Activity (Rattus norvegicus [36]): abnormal symptoms in treated mouse

From ChEMBL document CHEMBL1132521, “Synthesis and hypoglycemic effect of chrysin derivatives” (Bioorg Med Chem Lett, 1999)
